Source: US20160318856A1, “Substituted Urea eIF2alpha Kinase Activators” (THE BRIGHAM AND WOMEN'S HOSPITAL, INC., priority 2013, published 2016)
Like-named read-outs stand apart in the source and are kept apart here.

Tests used:
[1] = test system: CRL-2813 human melanoma cancer cells; test: cell proliferation (SRB) assay, CRL-2813; format: cell-based
Method in brief: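 Cells exposed 5 days to 0.5–20 μM compound, then TCA-fixed and stained with sulforhodamine B. Growth as 100×[(T−T0)/(C−T0)] from absorbance of treated, control and time-zero cultures; cell death as 100×[(T−T0)/T0] where T is below T0.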

Panc-1 = test: cell proliferation (SRB) assay, Panc-1; format: cell-based; conditions: Homo sapiens, Table 7
Method: (§1) Cells were seeded in 96-well plates and maintained for 5 days in the presence of 0.5 to 20 μM of individual compound, and cell proliferation was measured by the sulforhodamine B (SRB) assay as described previously (see, for example, Palakurthi, S. S. et al. Cancer Research 2000, 60(11), 2919-2925). Briefly, at the end of a 5-day treatment, cells were fixed in 10% cold trichloroacetic acid. Cell number was estimated by measuring the remaining bound dye of sulforhodamine B after washing. The percentage of growth was calculated by using the equation: 100×[(T−T0)/(C−T0)], where T and C represent the absorbance in treated and control cultures at Day 5, and T0 at time zero, respectively. If T is less than T0, cell death has occurred and can be calculated from 100×[(T−T0)/T0].
(§2) The compounds shown in Table 7 were evaluated using for activation of HRI using the dual luciferase surrogate eIF2α phosphorylation assay (see, for example, Chen, T. et al. Nature Chem Biol 2011, 7, 610-616) and for inhibition of cell proliferation using the SRB assay (see, for example, Palakurthi, S. S. et al. Cancer Res 2000, 60, 2919-2925) as described above.

ASPC-1 = test: cell proliferation assay, ASPC-1; format: cell-based; conditions: Homo sapiens, ASPC1; SRB assay, Table 7; read-out: IC50 ASPC-1
Method: as §1, §2

[2] = test system: eIF2α phosphorylation (eIF2•GTP•Met-tRNAi ternary complex; HRI activation); test: surrogate dual luciferase eIF2α phosphorylation (ternary complex) assay; format: cell-based, human; conditions: for maximal fold induction: Homo sapiens, DMSO = 1, maximum tested concentration 20 μM, read-out: Emax: Maximum activity of compound expressed as fold over vehicle; for C3X: Calculated concentration of compound that will cause three-fold increase in the surrogate eIF2α phosphorylation assay: Table 7
Method in brief: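 Cell-based dual luciferase reporter: firefly luciferase behind the ATF-4 5′UTR (uORFs) and renilla luciferase behind a uORF-free 5′UTR, read with a dual glow kit. Activity given as firefly/renilla ratio normalised to DMSO wells set at 1, with a rising ratio reflecting reduced ternary complex (e.g., HRI activation).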

NIH/3T3 fibroblast cells = test: cell proliferation (SRB) assay, NIH/3T3; format: cell-based
Method: as §1
The experiments were conducted in triplicate, and each experiment was independently performed three times. IC50=effective dose of drug that inhibit cell proliferation by 50%. Data are shown as Mean±S.E.M.
Compounds I-6p, I-17, I-18 and I-20 were tested in NIH/3T3 fibroblast and CRL-2813 melanoma cancer cells in cell proliferation assay. The experiment was conducted in triplicate and each experiment was independently performed three times. Data are shown as Mean IC50±S.E.M.

[3] = Homo sapiens, CRL2813, SRB assay, Table 7, read-out: IC50 CRL-2813

IC50 [1, 3] [nM] | IC50 (Panc-1) [nM] | IC50 (ASPC-1) [nM] | IC50 ([1]; CRL-2813, Table 5, Mean±S.E.M., read-out: IC50) [nM] | IC50 ([1]; CRL-2813, Table 8, Mean IC50±S.E.M., read-out: IC50 of compounds) [nM] | IC50 ([1]; cell proliferation assay (SRB, 5 days), cell line not named in Table 1, values equal CRL-2813 values of Tables 5/8, read-out: IC50) [nM] | Emax (F/R) ([2]; ternary complex assay, F/R normalized to vehicle (DMSO = 1)) | SMILES | maximal fold induction [2] | C3X: Calculated concentration of compound that will cause three-fold increase in the surrogate eIF2α phosphorylation assay [2] [µM] | fold higher potency on cancer cells compared to non-transformed cells (NIH/3T3 fibroblast cells; CRL-2813 human melanoma vs NIH-3T3 fibroblast) | IC50 (NIH/3T3 fibroblast cells; NIH/3T3, Table 5, Mean±S.E.M., read-out: IC50) [nM] | IC50 (NIH/3T3 fibroblast cells; NIH/3T3, Table 8, Mean IC50±S.E.M., read-out: IC50 of compounds) [nM]
1900 | 2700 | 4000 |  |  |  |  | NC(=O)c1cc(C(F)(F)F)ccc1O[C@H]1CC[C@H](NC(=O)Nc2cccc(C(F)(F)F)c2)CC1 | 8 | 7 |  |  | 
2100 | 2500 | 3000 |  |  |  |  | NC(=O)c1cc(O[C@H]2CC[C@H](NC(=O)Nc3cccc(C(F)(F)F)c3)CC2)ccc1C(F)(F)F | 2.8 | >20 |  |  | 
4000 | 4000 | > 10000 |  |  |  |  | O=C(Nc1cccc(C(F)(F)F)c1)N[C@H]1CC[C@H](Oc2ccc(C(F)(F)F)cc2[N+](=O)[O-])CC1 | 13 | 5 |  |  | 
500 | 1100 | 800 |  |  |  |  | O=C(Nc1cccc(OC(F)(F)F)c1)N[C@H]1CC[C@H](Oc2ccc(C(F)(F)F)cc2[N+](=O)[O-])CC1 | 12 | 0.5 |  |  | 
500 | 900 | 900 |  |  |  |  | O=C(Nc1cccc(C(F)(F)F)c1)N[C@H]1CC[C@H](Oc2ccc(C(F)(F)F)cc2)CC1 | 25 | 0.4 |  |  | 
 |  |  | 2700 ± 100 | 2700 ± 100 | 2700 ± 100 | 15.32 | O=C(Nc1ccc(OC(F)(F)F)cc1)NC1CCC(Oc2ccc(F)cc2)CC1 (centres unmarked) [Compound I-6p] |  |  | five-fold higher potency | 13600 ± 800 | 13600 ± 800
